According to patent US11286268B1, “EIF4E-inhibiting compounds and methods” (EFFECTOR THERAPEUTICS, INC., priority 2019, dated 2022):
Read-outs that look alike come from different tables or passages of the source.

Target: recombinant eIF4E (Homo sapiens (Human), UniProt P06730)
Assay: Fluorescence polarization competition assay for eIF4E binding potency
Outline: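 Protein and fluorescent cap-analog probe (EDA-m7GDP-ATTO-550) were mixed first for 5 min, after which serially diluted compound was added to final 75 nM eIF4E, 20 nM probe, 1% DMSO. Reactions equilibrated 30 min at room temperature before polarization was measured.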

[1] = fluorescence polarization competition, 75 nM recombinant eIF4E, 20 nM EDA-m7GDP-ATTO-550, IC50 class, read-out: elF4E FP
[2] = inhibition of eIF4E/EDA-m7GDP-ATTO-550 binding by 50%, Table 4B calculated values, read-out: IC50

recombinant eIF4E, sequence (P06730 whole entry): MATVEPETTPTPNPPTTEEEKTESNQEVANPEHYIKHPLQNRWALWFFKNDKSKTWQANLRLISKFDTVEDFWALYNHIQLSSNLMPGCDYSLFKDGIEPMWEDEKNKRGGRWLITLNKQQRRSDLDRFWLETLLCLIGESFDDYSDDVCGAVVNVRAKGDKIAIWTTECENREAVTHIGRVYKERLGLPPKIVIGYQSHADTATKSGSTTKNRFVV

| Compound | IC50 [1] [nM] | IC50 [2] [nM] |
| --- | --- | --- |
| Cc1cccc(-c2nc(C)c3nc(C)n(CCOc4ccc(Cl)cc4-c4cc(C)nc5c(C(=O)O)csc45)c(=O)c3c2C#N)c1 [compound 478] | < 50 |  |
| Cc1cc(-c2cc(Cl)ccc2OCCn2c(C)nc3c(C)nc(-c4ccccc4C)c(C#N)c3c2=O)c2scc(C(=O)O)c2n1 [compound 479] | < 50 |  |
| Cc1cc(-c2cc(Cl)ccc2OCCn2c(C)nc3c(C)nc(-c4ccc(Cl)cc4)c(C#N)c3c2=O)c2scc(C(=O)O)c2n1 [compound 480] | < 50 | 7.39 |
| Cc1cc(-c2cc(Cl)ccc2OCCn2c(C)nc3c(C)nc(-c4cccc(Cl)c4)c(C#N)c3c2=O)c2scc(C(=O)O)c2n1 [compound 481] | < 50 | 10.5 |
| Cc1cc(-c2cc(Cl)ccc2OCCn2c(C)nc3c(C)nc(-c4ccccc4Cl)c(C#N)c3c2=O)c2scc(C(=O)O)c2n1 [compound 482] | < 50 |  |
| Cc1cc(-c2cc(Cl)ccc2OCCn2c(C)nc3c(CN4CCN(C)CC4)c(C(F)(F)F)cc(C#N)c3c2=O)c2scc(C(=O)O)c2n1 [compound 483] | < 50 | 42.1 |
| Cc1nc2cc(C(F)(F)F)cc(C#N)c2c(=O)n1CCOc1ccc(Cl)cc1-c1cc(CO)nc2c(C(=O)O)csc12 [compound 484] | < 50 | 11.6 |
| Cc1cc(-c2cc(Cl)ccc2OCCn2c(C)nc3cc(C(F)(F)F)c(CN4CCN(C)CC4)c(C#N)c3c2=O)c2scc(C(=O)O)c2n1 [compound 485] | < 50 | 8.59 |
| Cc1cc(-c2cc(Cl)ccc2OCCn2c(C)nc3c(F)cc(C(F)F)c(C#N)c3c2=O)c2scc(S(=O)(=O)O)c2n1 [compound 488] | < 50 |  |
| COCc1cc(-c2cc(Cl)ccc2OCCn2c(C)nc3cc(C(F)(F)F)c(CN4CCN(C)CC4)c(C#N)c3c2=O)c2scc(C(=O)O)c2n1 [compound 489] | < 50 |  |
| Cc1cc(-c2cc(Cl)ccc2OCCn2c(C)nc3c(F)cc(C(F)F)c(C#N)c3c2=O)c2cccc(C(=O)O)c2n1 [compound 490] | 50 to 1000 |  |
| Cc1cc(-c2cc(Cl)ccc2OCCn2c(C)nc3c(C(C)C)ncc(C#N)c3c2=O)c2scc(C(=O)O)c2n1 [compound 491] | < 50 | 22.9 |
| Cc1cc(-c2cc(Cl)ccc2OCCn2c(C)nc3c(C)nc(C)c(C#N)c3c2=O)c2scc(C(=O)O)c2n1 [compound 492] | < 50 | 29.7 |
| Cc1nc2cc(Cl)c(S(C)(=O)=O)c(C#N)c2c(=O)n1CCOc1ccc(Cl)cc1-c1ccnc2c(C(=O)O)csc12 [compound 493] | 50 to 1000 | 94.2 |
| Cc1nc2cc(C(F)(F)F)c(CC3CN(CC(F)(F)F)C3)c(C#N)c2c(=O)n1CCOc1ccc(Cl)cc1-c1ccnc2c(C(=O)O)csc12 [compound 494] | 50 to 1000 | 85.6 |
| Cc1cnc2c(C(=O)O)csc2c1-c1cc(Cl)ccc1OCCn1c(C)nc2cc(C(F)(F)F)cc(C#N)c2c1=O [compound 495] | 50 to 1000 | 237 |
| Cc1nc2cc(C(F)(F)F)cc(C#N)c2c(=O)n1CCOc1ccc(Cl)cc1-c1ccnc2c1CCC2C(=O)O (centres unmarked) [compound 496] | > 1000 | 1060 |
| Cc1nc2c(F)c(Cl)c(C(F)F)c(C#N)c2c(=O)n1CCOc1ccc(Cl)cc1-c1ccnc2c(C(=O)O)csc12 [compound 498] | < 50 | 24.2 |
| Cc1nc2cc(C(F)(F)F)c(CN3CCOCC3)c(C#N)c2c(=O)n1CCOc1ccc(Cl)cc1-c1ccnc2c(C(=O)O)csc12 [compound 501] | < 50 | 25.7 |
| Cc1nc2cc(C(F)(F)F)c(CN3CCN(C)CC3)c(C#N)c2c(=O)n1CCOc1ccc(Cl)cc1-c1ccnc2c(C(=O)O)csc12 [compound 502] | < 50 | 38.4 |
| Cc1nc2cc(C(F)(F)F)c(CN(C)C)c(C#N)c2c(=O)n1CCOc1cc(F)c(Cl)cc1-c1ccnc2c(C(=O)O)csc12 [compound 503] | < 50 | 8.67 |
| Cc1nc2c(F)cc(C(F)F)c(C#N)c2c(=O)n1CCOc1cc(F)c(Cl)cc1-c1ccnc2c(C(=O)O)csc12 [compound 504] | < 50 | 22.9 |
| Cc1nc2cc(C(F)(F)F)c(Cl)c(C#N)c2c(=O)n1CCOc1cc(F)c(Cl)cc1-c1ccnc2c(C(=O)O)csc12 [compound 505] | < 50 | 43.6 |
| Cc1nc2cc(F)c(F)c(C#N)c2c(=O)n1CCOc1cc(F)c(Cl)cc1-c1ccnc2c(C(=O)O)csc12 [compound 506] | 50 to 1000 | 68.9 |
| Cc1nc2ccc(CCN(C)C)c(C#N)c2c(=O)n1CCOc1ccc(Cl)cc1-c1ccnc2c(C(=O)O)csc12 [compound 507] | < 50 | 49 |
| Cc1nc2c(F)cc(CN(C)C)c(C#N)c2c(=O)n1CCOc1ccc(Cl)cc1-c1ccnc2c(C(=O)O)csc12 [compound 508] | < 50 | 15.2 |

| Compound | IC50 [1] [nM] | IC50 [2] [nM] |
| --- | --- | --- |
| Cc1nc2cc(Cl)c(CN(C)C)c(C#N)c2c(=O)n1CCOc1ccc(Cl)cc1-c1ccnc2c(C(=O)O)csc12 [compound 509] | 50 to 1000 | 125 |
| Cc1nc2cc(C#N)c(CN(C)C)c(C#N)c2c(=O)n1CCOc1ccc(Cl)cc1-c1ccnc2c(C(=O)O)csc12 [compound 510] | 50 to 1000 | 50.5 |
| Cc1cc2cc(C#N)c(CN(C)C)c(C#N)c2c(=O)n1CCOc1ccc(Cl)cc1-c1ccnc2c(C(=O)O)csc12 [compound 511] | 50 to 1000 | 88 |
| Cc1nc2cc(CN(C)C)cc(C#N)c2c(=O)n1CCOc1ccc(Cl)cc1-c1ccnc2c(C(=O)O)csc12 [compound 512] | 50 to 1000 | 71.8 |
| Cc1nc2cc(CCN(C)C)cc(C#N)c2c(=O)n1CCOc1ccc(Cl)cc1-c1ccnc2c(C(=O)O)csc12 [compound 513] | < 50 | 11.6 |
| Cc1nc2cc(C(F)(F)CN(C)C)cc(C#N)c2c(=O)n1CCOc1ccc(Cl)cc1-c1ccnc2c(C(=O)O)csc12 [compound 514] | < 50 | 39.9 |
| Cc1nc2cc(CN(C)C)c(C(F)F)c(C#N)c2c(=O)n1CCOc1ccc(Cl)cc1-c1ccnc2c(C(=O)O)csc12 [compound 515] | < 50 | 46 |
| Cc1nc2cc(CN(C)C)c(Cl)c(C#N)c2c(=O)n1CCOc1ccc(Cl)cc1-c1ccnc2c(C(=O)O)csc12 [compound 516] | < 50 | 34.4 |
| Cc1nc2cc(CN(C)C)c(F)c(C#N)c2c(=O)n1CCOc1ccc(Cl)cc1-c1ccnc2c(C(=O)O)csc12 [compound 517] | < 50 | 35.7 |
| Cc1nc2c(F)c(CN(C)C)c(C(F)F)c(C#N)c2c(=O)n1CCOc1ccc(Cl)cc1-c1ccnc2c(C(=O)O)csc12 [compound 518] | < 50 | 16.4 |
| Cc1nc2cc(C(F)(F)F)c(Cl)c(C#N)c2c(=O)n1CCOc1ccc(Cl)cc1-c1ccnc2c(C(=O)NS(C)(=O)=O)csc12 [compound 519] | < 50 | 37.8 |
| Cc1nc2cc(Cl)c(C(F)F)c(C#N)c2c(=O)n1CCOc1ccc(Cl)cc1-c1ccnc2c(C(=O)NS(C)(=O)=O)csc12 [compound 520] | < 50 | 18.3 |
| CONC(=O)c1csc2c(-c3cc(Cl)ccc3OCCn3c(C)nc4cc(C(F)(F)F)c(Cl)c(C#N)c4c3=O)ccnc12 [compound 521] | 50 to 1000 | 623 |
| Cc1nc2cc(C(F)(F)F)c(CN3CCC(F)(F)CC3)c(C#N)c2c(=O)n1CCOc1ccc(Cl)cc1-c1ccnc2c(C(=O)O)csc12 [compound 522] | < 50 | 22.7 |
| Cc1nc2cc(C(F)(F)F)c(CN3[C@@H]4CC[C@H]3COC4)c(C#N)c2c(=O)n1CCOc1ccc(Cl)cc1-c1ccnc2c(C(=O)O)csc12 [compound 523] | < 50 | 23.9 |
| Cc1nc2cc(C(F)(F)F)c(CN(C)CC(F)F)c(C#N)c2c(=O)n1CCOc1ccc(Cl)cc1-c1ccnc2c(C(=O)O)csc12 [compound 525] | < 50 | 34.7 |
| Cc1nc2cc(C(F)(F)F)c(CN3CCCC3)c(C#N)c2c(=O)n1CCOc1ccc(Cl)cc1-c1ccnc2c(C(=O)O)csc12 [compound 526] | 50 to 1000 | 64.1 |
| CCN(CC)Cc1c(C(F)(F)F)cc2nc(C)n(CCOc3ccc(Cl)cc3-c3ccnc4c(C(=O)O)csc34)c(=O)c2c1C#N [compound 527] | < 50 | 24.8 |
| Cc1nc2cc(C(F)(F)F)c(CN3CCCCC3)c(C#N)c2c(=O)n1CCOc1ccc(Cl)cc1-c1ccnc2c(C(=O)O)csc12 [compound 528] | < 50 | 27.1 |
| Cc1cc(-c2cc(Cl)ccc2OCCn2c(C)nc3ccc(C(F)(F)CN(C)C)c(C#N)c3c2=O)c2scc(C(=O)O)c2n1 [compound 529] | < 50 | 5.78 |
| Cc1nc2cc(C(F)F)c(CN(C)C)c(C#N)c2c(=O)n1CCOc1ccc(Cl)cc1-c1ccnc2c(C(=O)O)csc12 [compound 530] | < 50 | 6.65 |
| Cc1nc2cc(OC(F)F)c(CN(C)C)c(C#N)c2c(=O)n1CCOc1ccc(Cl)cc1-c1ccnc2c(C(=O)O)csc12 [compound 531] | < 50 | 42.9 |
| Cc1nc2cc(OC(F)(F)F)c(CN(C)C)c(C#N)c2c(=O)n1CCOc1ccc(Cl)cc1-c1ccnc2c(C(=O)O)csc12 [compound 532] | < 50 | 45.1 |
| COCc1cc(F)c2cc(C)n(CCOc3ccc(Cl)cc3-c3ccnc4c(C(=O)O)csc34)c(=O)c2c1C#N [compound 533] | 50 to 1000 | 62.7 |
| CSCc1cc(F)c2cc(C)n(CCOc3ccc(Cl)cc3-c3ccnc4c(C(=O)O)csc34)c(=O)c2c1C#N [compound 534] | < 50 | 30.2 |
| Cc1nc2cc(C(F)(F)F)cc(C#N)c2c(=O)n1CCOc1ccc(Cl)cc1C1CCNC(C(=O)O)C1 (centres unmarked) [compound 535] | 50 to 1000 | 244 |
